In assay [1] the target is HIV-1 integrase (Human immunodeficiency virus 1). The assay can be described thus: In vitro inhibitory concentration against HIV-1 recombinant integrase activity in standard 3'-processing assay.
Assay [2] has the same target. The assay can be described thus: In vitro inhibitory concentration against HIV-1 recombinant integrase activity in strand transfer assay.

Molecules are shown by their SMILES.

Drawing on BindingDB's records for doi:10.1016/j.bmcl.2005.06.036 (Unit&#233, 2005), this text covers IC50 for one molecule.

Turning to `O=C(c1ccc(O)cc1)c1ccc2ccc(/C=C/c3ccc(O)c(O)c3)nc2c1O` [{2-[(E)-2-(3,4-Dihydroxy-phenyl)-vinyl]-8-hydroxy-quinolin-7-yl}-(4-hydroxy-phenyl)-methanone], the IC50 in assay [1] and in assay [2] was over 100 µM in each case.

Broadly, the IC50 is the concentration at which inhibition is half-maximal.
